Read-outs that look alike come from different tables or passages of the source.
Key:
[1] = target: T1, recombinant human Lp-PLA2 enzyme (Homo sapiens, UniProt Q13093); assay: Recombinant human Lp-PLA2 assay (rhLp-PLA2), PED6 assay; type: biochemical
T1 sequence (Q13093 22-441): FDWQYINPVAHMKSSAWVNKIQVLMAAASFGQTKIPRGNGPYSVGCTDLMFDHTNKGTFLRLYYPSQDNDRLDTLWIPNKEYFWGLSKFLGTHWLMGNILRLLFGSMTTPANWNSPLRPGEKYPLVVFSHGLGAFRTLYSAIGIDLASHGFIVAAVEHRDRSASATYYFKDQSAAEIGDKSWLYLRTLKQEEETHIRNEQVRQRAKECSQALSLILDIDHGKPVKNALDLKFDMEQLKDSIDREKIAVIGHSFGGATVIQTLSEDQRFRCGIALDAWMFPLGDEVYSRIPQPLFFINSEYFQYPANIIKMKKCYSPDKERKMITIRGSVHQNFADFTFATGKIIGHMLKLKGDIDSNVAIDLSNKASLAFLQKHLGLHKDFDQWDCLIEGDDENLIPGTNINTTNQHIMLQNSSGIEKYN
Protocol: (1) Recombinant Human Lp-PLA2 Assay (rhLp-PLA2), Also Referred to as PED6 Assay
PED6 was a fluorescently-labeled phospholipid that could be purchased dorectly from Invitogene or Molecular Probes. […] Once cleaved by the Lp-PLA2 enzyme, it would release the FL group, resulting in enhanced fluorescence.
Assay Method: The compound to be tested (as shown in Table 1) was mixed with a DMSO solution in a volume ratio of 1:3, and diluted to prepare a source plate of a 384-well microplate. Then 0.01 μl of the compound was transferred via an ECHO liquid dispenser from the source plate to a 384-well Greiner 784076 plate, and 5 μl of a buffer consisting of 50 mM HEPES, pH7.4, 150 mM NaCl, and 1 mM CHAPS (the buffer solution containing a recombinant human Lp-PLA2 enzyme at a concentration of 4 nM or 110 pM) was added to each well of the plate. The plate was centrifuged at 500 rpm for 10 seconds. After a 30-min pre-incubation, 5 μl of the above-mentioned buffer was added to a 384-well Greiner 784076 plate, the plate was centrifuged at 500 rpm for 10 seconds.

[2] = target: T2, Lp-PLA2 enzyme in human plasma (Homo sapiens, UniProt Q13093); assay: Assay of Lp-PLA2 in human plasma (Thio-PAF assay); type: biochemical
T2 construct: from tissue; host or cells: mixed (pooled) human plasma
T2 sequence (Q13093 22-441): T1 sequence (Q13093 22-441)
Protocol: (2) Assay of Lp-PLA2 in Human Plasma (Also Referred to as Thio-PAF Assay)
The human plasma assay was conducted using the sulphatide analog of PAF (phosphatidylcholine). After hydrolysis, it would generate phospholipids containing free sulfhydryl groups, which would be subjected to Michael addition with CPM to generate fluorescence-enhancing maleimide. Continuous quantitative analysis of thiol could be conducted by detecting the fluorescence intensity. This assay could be used to detect the inhibitory activity of the Lp-PLA2 inhibitor on the Lp-PLA2 enzyme in human plasma.
Assay Method: The compound to be tested (as shown in Table 2) was mixed with a DMSO solution in a volume ratio of (1:3), and diluted to prepare a source plate of a 384-well microplate. Then 0.01 μl of the compound was transferred via an ECHO liquid dispenser from the source plate to a 384-well Greiner 784076 plate, and 8 μl of pre-aliquoted and frozen mixed human plasma was then added. The plate was centrifuged at 500 rpm for 10 seconds. After a 30-min pre-incubation, 2 μl of a substrate solution, and a buffer containing 2.5 mM 2-thio-PAF (a solution in ethanol), 32 μM CPM (a solution in DMSO) and 3.2 mM N-ethylmaleimide (NEM) (a buffer solution consisting of 50 mM HEPES, pH7.4, 150 mM NaCl, 1 mM CHAPS) was added by a BRAVO liquid handling station to a 384-well Greiner 784076 low-volume plate. Two minutes later, the reaction was quenched with 5 μl of 5% trifluoroacetic acid. After the plate was incubated at room temperature for 40 min in a dark place, the fluorescence intensity was read at ex 380/em 485 with an Envision microplate reader, and the XL fitting model in Excel was used to perform the curve analysis and QC analysis to calculate pIC50.

[3] = PED6 substrate, recombinant human Lp-PLA2 at 4 nM or 110 pM, 30-min pre-incubation, fluorescence ex 480/em 540, read-out: rhLp-PLA2 (pIC50) (converted)
[4] = mixed human plasma, 2-thio-PAF substrate with CPM, 30-min pre-incubation, fluorescence ex 380/em 485, read-out: Thio-PAF (pIC50) (converted)

Row | SMILES | IC50 [1, 3] [nM] | IC50 [2, 4] [nM] | IC50 [1] [nM] | IC50 [2] [nM]
1 | O=c1nc(OCc2cccc(F)c2F)cc2n1CC13CCC(CC1)N23 [Compound 1] | – | – | 2.51 | 100
2 | O=c1nc(OCc2ccc(F)cc2)cc2n1CC13CCC(CC1)N23 [Compound 2] | – | – | 0.794 | 25.1
3 | O=c1nc(OCc2ccc(F)c(F)c2)cc2n1CC13CCC(CC1)N23 [Compound 3] | – | – | 0.501 | 15.8
4 | O=c1nc(OCc2cc(F)c(Oc3ccc(C(F)(F)F)nc3)c(F)c2)cc2n1CC13CCC(CC1)N23 [Compound 6] | 0.0501 | 7.94 | – | –
5 | Cc1cc(Oc2c(F)cc(COc3cc4n(c(=O)n3)CC35CCC(CC3)N45)cc2F)ccn1 [Compound 7] | 0.0398 | 3.16 | – | –
6 | Cc1ccc(Oc2c(F)cc(COc3cc4n(c(=O)n3)CC35CCC(CC3)N45)cc2F)cn1 [Compound 8] | 0.0316 | 7.94 | – | –
7 | O=c1nc(OCc2cc(F)c(Oc3ccc(Cl)c(C(F)(F)F)c3)c(F)c2)cc2n1CC13CCC(CC1)N23 [Compound 10] | 0.0631 | 7.94 | – | –
8 | Cc1cc(Oc2c(F)cc(COc3cc4n(c(=O)n3)CC35CCC(CC3)N45)cc2F)ccc1Cl [Compound 12] | 0.0794 | 10 | – | –
9 | O=c1nc(OCc2cc(F)c(Oc3ccc(OC(F)(F)F)c(Cl)c3)c(F)c2)cc2n1CC13CCC(CC1)N23 [Compound 17] | 0.0794 | 10 | – | –
10 | Cc1ncc(Oc2c(F)cc(COc3cc4n(c(=O)n3)CC35CCCC(CC3)N45)cc2F)cn1 (stereo not drawn) [Compound 19] | 0.316 | 15.8 | – | –

The next lines start with results.

Row | IC50 [1, 3] [nM] | IC50 [2, 4] [nM] | SMILES | IC50 [1] [nM] | IC50 [2] [nM]
11 | 0.0398 | 3.98 | O=c1nc(OCc2cc(F)c(Oc3ccnc(C(F)(F)F)c3)c(F)c2)cc2n1CC13CCC(CC1)N23 [Compound 4] | – | –
12 | 0.0316 | 6.31 | O=c1nc(OCc2cc(F)c(Oc3ccc(C(F)(F)F)cc3)c(F)c2)cc2n1CC13CCC(CC1)N23 [Compound 5] | – | –
13 | 0.1 | 12.6 | Cc1ncc(Oc2c(F)cc(COc3cc4n(c(=O)n3)CC35CCC(CC3)N45)cc2F)cn1 [Compound 9] | – | –
14 | 0.0794 | 12.6 | O=c1nc(OCc2cc(F)c(Oc3cccc(C(F)(F)F)c3)c(F)c2)cc2n1CC13CCC(CC1)N23 [Compound 11] | – | –
15 | 0.251 | 20 | O=c1nc(OCc2cc(F)c(Oc3cnc(C(F)(F)F)nc3)c(F)c2)cc2n1CC13CCC(CC1)N23 [Compound 13] | – | –
16 | 0.0794 | 7.94 | O=c1nc(OCc2cc(F)c(Oc3ccc(C(F)(F)F)c(Cl)c3)c(F)c2)cc2n1CC13CCC(CC1)N23 [Compound 14] | – | –
17 | 0.1 | 12.6 | O=c1nc(OCc2cc(F)c(Oc3cccc(OC(F)(F)F)c3)c(F)c2)cc2n1CC13CCC(CC1)N23 [Compound 16] | – | –
18 | 0.1 | 7.94 | O=c1nc(OCc2cc(F)c(Oc3ccnc(C(F)(F)F)c3)c(F)c2)cc2n1CC13CCCC(CC1)N23 (stereo not drawn) [Compound 18] | – | –
